Results taken from the supplement of paper PMC10307832.

Legend:
Test in all cases: relative viability (nuclei count vs DMSO), 5 days (fraction); higher = more cells survive
IMD-0354 + Phenformin = compound: O=C(Nc1cc(C(F)(F)F)cc(C(F)(F)F)c1)c1cc(Cl)ccc1O [IMD-0354] + N=C(N)NC(=N)NCCc1ccccc1 [Phenformin] (partner 250 µM)
Summary of the method: (§1)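 Relative viability divides the nuclei count in treated wells by that in vehicle wells. Lung cancer cell lines were seeded in 1536-well plates, dosed by pin tool the next day, and fixed and stained after 5 days in one step with final 0.05% Triton X-100, 1% formaldehyde and 1 ug/ml Hoechst. Dosing was a single drug or a fixed anchor-drug dose plus five library-drug doses (not always all listed) in √10 steps, and values are medians of duplicate plates imaged at 4×.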

CX-5461 + Pictilisib = compound: Cc1cnc(CNC(=O)c2c(=O)c3ccc(N4CCCN(C)CC4)nc3n3c2sc2ccccc23)cn1 [CX-5461] + CS(=O)(=O)N1CCN(Cc2cc3nc(-c4cccc5[nH]ncc45)nc(N4CCOCC4)c3s2)CC1 [Pictilisib] (partner 1 µM)
Summary of the method: as §1

CX-5461 + Trametinib = compound: Cc1cnc(CNC(=O)c2c(=O)c3ccc(N4CCCN(C)CC4)nc3n3c2sc2ccccc23)cn1 [CX-5461] + CC(=O)Nc1cccc(-n2c(=O)n(C3CC3)c(=O)c3c(Nc4ccc(I)cc4F)n(C)c(=O)c(C)c32)c1 [Trametinib] (partner 0.02 µM)
Summary of the method: as §1

CX-5461 + AZD7762 = compound: Cc1cnc(CNC(=O)c2c(=O)c3ccc(N4CCCN(C)CC4)nc3n3c2sc2ccccc23)cn1 [CX-5461] + NC(=O)Nc1cc(-c2cccc(F)c2)sc1C(=O)N[C@H]1CCCNC1 [AZD7762] (partner 0.2 µM)
Summary of the method: as §1

| Cell Line | relative viability (IMD-0354 + Phenformin; first compound 0.04 µM) | relative viability (IMD-0354 + Phenformin; first compound 0.1265 µM) | relative viability (IMD-0354 + Phenformin; first compound 0.4 µM) | relative viability (IMD-0354 + Phenformin; first compound 1.265 µM) | relative viability (IMD-0354 + Phenformin; first compound 4 µM) | relative viability (CX-5461 + Pictilisib; first compound 0.01 µM) | relative viability (CX-5461 + Pictilisib; first compound 0.03162 µM) | relative viability (CX-5461 + Pictilisib; first compound 0.1 µM) | relative viability (CX-5461 + Pictilisib; first compound 0.3162 µM) | relative viability (CX-5461 + Pictilisib; first compound 1 µM) | relative viability (CX-5461 + Trametinib; first compound 0.01 µM) | relative viability (CX-5461 + Trametinib; first compound 0.03162 µM) | relative viability (CX-5461 + Trametinib; first compound 0.1 µM) | relative viability (CX-5461 + Trametinib; first compound 0.3162 µM) | relative viability (CX-5461 + Trametinib; first compound 1 µM) | relative viability (CX-5461 + AZD7762; first compound 0.01 µM) | relative viability (CX-5461 + AZD7762; first compound 0.03162 µM) | relative viability (CX-5461 + AZD7762; first compound 0.1 µM) | relative viability (CX-5461 + AZD7762; first compound 0.3162 µM) | relative viability (CX-5461 + AZD7762; first compound 1 µM) |
| --- | --- | --- | --- | --- | --- | --- | --- | --- | --- | --- | --- | --- | --- | --- | --- | --- | --- | --- | --- | --- |
| ChaGo-K-1 | 0.584 | 0.544 | 0.318 | 0.225 | 0.199 | 0.938 | 0.658 | 0.564 | 0.35 | 0.395 | 0.875 | 0.978 | 0.874 | 0.922 | 0.849 | 0.976 | 0.909 | 0.758 | 0.478 | 0.698 |
| LOU-NH91 | 0.498 | 0.393 | 0.208 | 0.143 | 0.166 | 0.57 | 0.497 | 0.528 | 0.452 | 0.486 | 0.796 | 0.813 | 0.777 | 0.613 | 0.78 | 0.787 | 0.758 | 0.74 | 0.475 | 0.693 |
| NCI-H2405 | 0.445 | 0.398 | 0.286 | 0.245 | 0.166 | 0.427 | 0.468 | 0.419 | 0.259 | 0.413 | 0.652 | 0.594 | 0.724 | 0.575 | 0.649 | 0.783 | 0.66 | 0.705 | 0.821 | 0.414 |
| LCLC-97TM1 | 0.43 | 0.451 | 0.234 | 0.18 | 0.126 | 0.179 | 0.172 | 0.188 | – | 0.204 | 0.199 | 0.216 | 0.176 | 0.193 | 0.213 | 0.279 | 0.424 | 0.177 | – | 0.237 |
| NCI-H596 | 0.852 | 0.748 | 0.547 | 0.898 | 0.318 | 0.465 | 0.406 | 0.372 | 0.429 | 0.344 | 0.763 | 0.819 | 0.73 | 0.836 | 0.756 | 1.07 | 1.01 | 0.965 | 1.07 | 0.515 |
| NCI-H727 | 0.483 | 0.407 | 0.426 | 0.307 | 0.402 | 0.355 | 0.492 | 0.277 | 0.253 | 0.614 | 0.375 | 0.389 | 0.4 | 0.356 | 0.379 | 0.48 | 0.709 | 0.473 | 0.648 | 0.566 |
| H3255 | 0.338 | 0.364 | 0.345 | 0.288 | 0.332 | 0.489 | 0.554 | 0.469 | 0.347 | 0.422 | 0.614 | 0.639 | 0.671 | – | 0.558 | 0.967 | 0.82 | 0.943 | 0.834 | 0.794 |
| LK-2 | 0.641 | 0.382 | 0.41 | 0.22 | 0.265 | – | 0.623 | 0.652 | – | 0.492 | 0.83 | 0.818 | 0.834 | 0.707 | 0.725 | 0.443 | 0.376 | 0.299 | – | 0.223 |
| NCI-H1437 | 0.317 | 0.279 | 0.195 | 0.15 | 0.2 | 0.381 | 0.471 | – | 0.408 | 0.382 | 0.542 | 0.568 | 0.469 | 0.537 | 0.391 | 1.1 | 1.05 | 1.11 | 1.09 | 1.04 |
| LU99A | 0.529 | 0.826 | 0.417 | 0.218 | 0.265 | 0.296 | 0.312 | 0.271 | 0.289 | 0.173 | 0.596 | 0.488 | 0.477 | 0.389 | 0.634 | 0.44 | 0.303 | 0.212 | 0.245 | 0.122 |
| HCC-827 | 0.411 | 0.353 | 0.228 | 0.178 | 0.174 | 1.16 | 0.912 | 1 | 0.87 | 1.12 | 0.509 | 0.583 | 0.617 | 0.494 | 0.582 | 0.193 | 0.195 | 0.193 | 0.22 | 0.182 |
| NCI-H1395 | 0.489 | 0.452 | 0.382 | 0.313 | 0.267 | 0.568 | 0.576 | 0.914 | 0.447 | 0.395 | 1.09 | 0.821 | 1.07 | 0.741 | 0.71 | 0.377 | 0.328 | 0.382 | 0.384 | 0.337 |
